According to US20180344702A1, “METHODS FOR TREATING PATIENTS WITH HEMATOLOGIC MALIGNANCIES” (Aptose Biosciences, Inc., priority 2017, published 2018):
Several values for one entry are separate records, joined by “and”; a condition that tells them apart may be missing. Equal values may be shown once.

Key:
Ba/F3-ITD (FLT3-ITD) = assay: Antiproliferative activity (Table 6); format: cell-based, Murin; details: 72 h
[1] = test system: FLT3 pathway in MV4-11 cells; assay: Western blot analysis in MV4-11 cells; format: cell-based, human; details: FIG. 1
Method: (§1) Immunoblot assays: Cells were treated with Compound 7 at various concentrations and collected for cell lysates. The total and phosphorylated levels of the indicated proteins were determined by Western Blot.

[2] = test system: BTK pathway in MV4-11 cells; assay: Western blot analysis in MV4-11 cells; format: cell-based, human; details: 0.5, 5.0, and 50 nM, FIG. 2
Method: as §1

RS411 = assay: Cytotoxicity, MTS cell viability; format: cell-based; details: Homo sapiens, RS4-11, 72 h, ALL / B-ALL, 3 days MTS
Method: (§2) Cells were seeded in a 96 well plate and treated with either vehicle (DMSO) or compound 7 at 10 different concentrations for 3 days at 37° C. and 5% CO2. Cell viability was assessed using CellTiter 96 AQueous one solution (MTS Promega Cat#G3581), and IC50 values calculated using GraphPad Prism 7 software.
(§3) Cytotoxicity procedure: Cells were seeded in 96-well plate and treated with vehicle DMSO or Compound 7 at a specified concentration and incubated for 72 hours.

K562 = assay: Cytotoxicity, MTS cell viability; format: cell-based; details: Homo sapiens, 72 h, CML, 3 days MTS
Method: as §2, §3

Ramos = assay: Cytotoxicity, MTS cell viability; format: cell-based; details: Homo sapiens, 72 h, Burkitt's, 3 days MTS
Method: as §2, §3

GRANTA-519 = assay: Cytotoxicity, MTS cell viability; format: cell-based; details: Homo sapiens, 72 h, MCL, 3 days MTS
Method: as §2, §3

MV411 cells = assay: Cell-cycle analysis (EdU/PI flow cytometry); format: cell-based, human; details: dose-dependent
Method: Cell-cycle analysis: Cells were treated with vehicle, DMSO or Compound 7 and were stained with PI and EdU, and then analyzed by flow cytometry to determine the phases of cell cycle.

Mino = assay: Apoptosis in B-cell malignancies (annexin V/PI, cleaved PARP); format: cell-based, human; details: increasing concentrations
Method: Mechanistic studies were undertaken to determine the mechanism of action for Compound 7. The apoptotic state of treated cells was determined by staining with annexin V and propidium iodide (PI), then analysis with the BD Accuri C6 flow cytometer, whereby live cells are annexin V/PI negative, early apoptotic cells are annexin V positive and late apoptotic cells are annexin V and PI positive. In addition production of cleaved PARP, a classic apoptotic marker, was assayed by western blotting with specific antibodies.

Mino cells = assay: Polyploidy in B-cell lines (Edu and PI staining, FACS); format: cell-based, human; details: 0.1 and 1.0 nM
Method: Further mechanistic studies were undertaken to fully elucidate Compound 7's potent cytotoxicity. B-cell lines were treated with vehicle or Compound 7 for 24-72 hours and the increase in DNA content or polyploidy phenotype was assessed using Edu and PI staining followed by FACS analysis using the BD Accuri C6 flow cytometer.
Mino and Ramos cell lines were treated with increasing concentrations of.

OCI-LY3 = assay: Cytotoxicity, MTS cell viability; format: cell-based; details: Homo sapiens, 72 h, ABC-DLBCL, 3 days MTS
Method: as §2

DOHH2 = assay: Cytotoxicity, MTS cell viability; format: cell-based; details: Homo sapiens, DOHH-2, 72 h, FL, 3 days MTS
Method: as §2

L1236 = assay: Cytotoxicity, MTS cell viability; format: cell-based; details: L-1236, 72 h, HL, 3 days MTS
Method: as §2

SU-DHL2 = assay: Cytotoxicity, MTS cell viability; format: cell-based; details: Homo sapiens, SU-DHL-2, 72 h, ABC-DLBCL, 3 days MTS
Method: as §2

MHH-Call4 = assay: Cytotoxicity, MTS cell viability; format: cell-based; details: MHHCALL4, 72 h, B-ALL, 3 days MTS
Method: as §2

BJAB = assay: Cytotoxicity, MTS cell viability; format: cell-based; details: Homo sapiens, 72 h, GCB-DLBCL, 3 days MTS
Method: as §2

U2932 = assay: Cytotoxicity, MTS cell viability; format: cell-based; details: Homo sapiens, 72 h, ABC-DLBCL, 3 days MTS
Method: as §2

[3] = test system: Ba/F3-ITD + 691 (ITD + F691L); assay: Antiproliferative activity (Table 6); format: cell-based, Murin; details: 72 h
[4] = test system: BTK pathway in EOL-1 cells; assay: Western blot analysis in EOL-1 cells; format: cell-based; details: 0.5, 5.0, and 50 nM, FIG. 3
Method: as §1

[5] = test system: Ba/F3 cells transfected with FLT3 D835Y; assay: Cytotoxicity in isogenic transfected Ba/F3 cells (Table 4); format: cell-based, Murin; details: Mus musculus, BaF3, read-out: IC50 in Transfected Ba/F3 cells, FLT3 D835Y
CLL patient samples = assay: Ex vivo assay for patient sensitivity (MTS, 3-day culture); format: cell-based, human; details: N evaluated 56
Method: (§4) 85 Patients with a diagnosis of acute myeloid leukemia (AML), 15 patients with myelodysplastic syndrome/myeloproliferative neoplasms (MDS/MPN), 18 patients with acute lymphoblastic leukemia (ALL), and 56 patients with chronic lymphocytic leukemia (CLL) were evaluated for sensitivity to the multi-kinase inhibitor, Compound 7, using an ex vivo assay. Sensitivity to Compound 7 was evaluated across a concentration range from 10 nM to 10 μM. Cell viability was assessed using a colorimetric, tetrazolium-based MTS assay after a 3-day culture period, and IC50 values were calculated as a measure of drug sensitivity.

AML patient samples = assay: as above; format: cell-based, human; details: N evaluated 85, 10 nM to 10 μM
Method: as §4

MDS/MPN patient samples = assay: as above; format: cell-based, human; details: N evaluated 15
Method: as §4

ALL patient samples = assay: as above; format: cell-based, human; details: N evaluated 18
Method: as §4

[6] = test system: Ba/F3 cells transfected with FLT3 WT; assay: Cytotoxicity in isogenic transfected Ba/F3 cells (Table 4); format: cell-based, Murin; details: Mus musculus, BaF3, read-out: IC50 in Transfected Ba/F3 cells, FLT3 WT
FLT3(ITD) = FLT3(ITD) (Homo sapiens, UniProt P36888); assay: Binding constant (Kd), competition binding with qPCR readout; parameters: other: FLT3(ITD); kinase-tagged T7 phage strains were prepared in an E. coli host derived from the BL21 strain; fused on or other part: T7 phage fusion or DNA tag for qPCR detection

In the case of Cc1cnc(-c2ccc(-c3ccc(NC(=O)Nc4c(F)cc(F)cc4F)cc3F)c3c2C(=O)NC3)[nH]1 [Compound 7, 1-{3-fluoro-4-[7-(5-methyl-1H-imidazol-2-yl)-1-oxo-2,3-dihydro-1H-isoindol-4-yl]-phenyl}-3-(2,4,6-trifluorophenyl)urea], the IC50 (Ba/F3-ITD (FLT3-ITD)) is reported as 0.3 nM, the “Inhibition of FLT3 pathway (Western blot)” value [1] is reported as “inhibits FLT3 pathway” and the “Inhibition of BTK pathway (Western blot)” value [2] is reported as “inhibits BTK pathway”. It also gave an IC50 (RS411) of 1.51 nM, an IC50 (K562) of 12900 nM and an IC50 (Ramos) of 18.4 nM. For the same compound, the IC50 (GRANTA-519) was 13.6 nM, the G0/G1 cell-cycle arrest (MV411 cells) was “induce G0/G1 cell-cycle arrest” and the “Apoptosis induction versus ibrutinib” value (Mino) was “induced apoptosis more effectively than ibrutinib at all concentrations tested”. For the same compound, the “Polyploidy (>4n) followed by apoptosis” value (Mino cells) was “effectively induced polyploidy (>4n) followed by apoptosis”, the IC50 (OCI-LY3) was 830 nM and the IC50 (DOHH2) was 2.94 nM. It also gave an IC50 (L1236) of 7820 nM, an IC50 (SU-DHL2) of 744 nM and an IC50 (MHH-Call4) of 27.8 nM. The IC50 (BJAB) was 882 nM, the IC50 (U2932) was 632 nM and the IC50 [3] was 0.43 nM. For the same compound, the “Inhibition of BTK pathway (Western blot)” value [4] was “inhibits BTK pathway”, the IC50 [5] was 8.8 nM and the “% samples with IC50 < 0.1 μM” value (CLL patient samples) was 41 (23/56) %. The “% samples with IC50 < 0.1 μM” value (AML patient samples) was 60% and 60 (51/85) %, the “% samples with IC50 < 0.1 μM” value (MDS/MPN patient samples) was 53 (8/15) % and the “% samples with IC50 < 0.1 μM” value (ALL patient samples) was 61 (11/18) %. For the same compound, the IC50 [6] was 11.3 nM and the Kd (FLT3(ITD)) was 3.1 nM.
